According to ChEMBL document CHEMBL4382208, “Design, synthesis and biological evaluation of novel 2-sulfonylindoles as potential anti-inflammatory therapeutic agents for treatment of acute lung injury” (Eur J Med Chem, 2018):
Blank lines part the entries; values can stand above or below the compound they belong to. Calls of active or inactive are those of the source. The rule behind the calls is not given here.

Legend:
Peritoneal macrophage [1] = assay: Antiinflammatory activity in mouse primary peritoneal macrophages assessed as inhibition of LPS-induced TNF-alpha production at 10 uM preincubated for 30 mins followed by LPS addition and measured after 24 hrs by ELISA relative to control; assay type: functional
Peritoneal macrophage [2] = assay: Antiinflammatory activity in mouse primary peritoneal macrophages assessed as inhibition of LPS-induced IL-6 production at 10 uM preincubated for 30 mins followed by LPS addition and measured after 24 hrs by ELISA relative to control; assay type: functional
Peritoneal macrophage [3] = assay: Cytotoxicity against mouse primary peritoneal macrophages assessed as reduction in cell viability at 10 uM after 24 hrs by MTT assay; assay type: cell-based
Peritoneal macrophage [4] = assay: Antiinflammatory activity in mouse primary peritoneal macrophages assessed as inhibition of LPS-induced TNF-alpha production preincubated for 30 mins followed by LPS addition and measured after 24 hrs by ELISA; assay type: functional, cell-based
Peritoneal macrophage [5] = assay: Antiinflammatory activity in mouse primary peritoneal macrophages assessed as inhibition of LPS-induced IL-6 production preincubated for 30 mins followed by LPS addition and measured after 24 hrs by ELISA; assay type: functional, cell-based
Peritoneal macrophage [6] = assay: Antiinflammatory activity in mouse primary peritoneal macrophages assessed as inhibition of LPS-induced IL-6 mRNA expression at 5 to 10 uM by RT-qPCR analysis; assay type: functional, cell-based
Peritoneal macrophage [7] = assay: Antiinflammatory activity in mouse primary peritoneal macrophages assessed as inhibition of LPS-induced IL-1beta mRNA expression at 5 to 10 uM by RT-qPCR analysis; assay type: functional, cell-based
Peritoneal macrophage [8] = assay: Antiinflammatory activity in mouse primary peritoneal macrophages assessed as inhibition of LPS-induced VCAM-1 mRNA expression at 5 to 10 uM by RT-qPCR analysis; assay type: functional, cell-based
Mus musculus [9] = assay: Antiinflammatory activity in C57BL/6 mouse assessed as inhibition of LPS-induced IL-6 mRNA expression in lungs at 10 to 20 mg/kg, ip by RT-qPCR analysis; assay type: functional, organism-based
Mus musculus [10] = assay: Antiinflammatory activity in C57BL/6 mouse assessed as inhibition of LPS-induced IL-1beta mRNA expression in lungs at 10 to 20 mg/kg, ip by RT-qPCR analysis; assay type: functional, organism-based
Mus musculus [11] = assay: Antiinflammatory activity in C57BL/6 mouse assessed as inhibition of LPS-induced VCAM-1 mRNA expression in lungs at 10 to 20 mg/kg, ip by RT-qPCR analysis; assay type: functional, organism-based
Mus musculus [12] = assay: Antiinflammatory activity in C57BL/6 mouse assessed as inhibition of LPS-induced lung edema at 10 to 20 mg/kg, ip pretreated for 30 mins followed by LPS addition measured after 6 hrs by hematoxylin and eosin staining based microscopic analysis; assay type: functional, organism-based
Mus musculus [13] = assay: Antiinflammatory activity in C57BL/6 mouse assessed as inhibition of LPS-induced alveolar hemorrhage at 10 to 20 mg/kg, ip pretreated for 30 mins followed by LPS addition measured after 6 hrs by hematoxylin and eosin staining based microscopic analysis; assay type: functional, organism-based
Mus musculus [14] = assay: Antiinflammatory activity in C57BL/6 mouse assessed as inhibition of LPS-induced inflammatory cell infiltration at 10 to 20 mg/kg, ip pretreated for 30 mins followed by LPS addition measured after 6 hrs by hematoxylin and eosin staining based microscopic analysis; assay type: functional, organism-based
Mus musculus [15] = assay: Antiinflammatory activity in C57BL/6 mouse assessed as inhibition of LPS-induced destruction of alveolar structure at 10 to 20 mg/kg, ip pretreated for 30 mins followed by LPS addition measured after 6 hrs by hematoxylin and eosin staining based microscopic analysis; assay type: functional, organism-based
Mus musculus [16] = assay: Antiinflammatory activity in C57BL/6 mouse assessed as inhibition of LPS-induced total protein level in bronchoalveolar lavage fluid at 10 to 20 mg/kg, ip pretreated for 30 mins followed by LPS addition measured after 6 hrs; assay type: functional, organism-based
Mus musculus [17] = assay: Antiinflammatory activity in C57BL/6 mouse assessed as inhibition of LPS-induced TNF-alpha level in bronchoalveolar lavage fluid at 10 to 20 mg/kg, ip pretreated for 30 mins followed by LPS addition measured after 6 hrs; assay type: functional, organism-based
Mus musculus [18] = assay: Antiinflammatory activity in C57BL/6 mouse assessed as inhibition of LPS-induced IL-6 level in bronchoalveolar lavage fluid at 10 to 20 mg/kg, ip pretreated for 30 mins followed by LPS addition measured after 6 hrs; assay type: functional, organism-based
Mus musculus [19] = assay: Antiinflammatory activity in C57BL/6 mouse assessed as inhibition of LPS-induced neutrophil filtration in lung by measuring myeloperoxidase activity at 10 to 20 mg/kg, ip pretreated for 30 mins followed by LPS addition measured after 6 hrs by Giemsa staining-based assay; assay type: functional, organism-based
Mus musculus [20] = assay: Antiinflammatory activity in C57BL/6 mouse assessed as inhibition of LPS-induced macrophage filtration in lung by measuring CD68 protein expression at 10 to 20 mg/kg, ip pretreated for 30 mins followed by LPS addition measured after 6 hrs by immunohistochemistry; assay type: functional, organism-based
Mus musculus [21] = assay: Antiinflammatory activity in C57BL/6 mouse assessed as inhibition of LPS-induced total number of cells in bronchoalveolar lavage fluid at 10 to 20 mg/kg, ip pretreated for 30 mins followed by LPS addition measured after 6 hrs by Giemsa staining-based assay; assay type: functional, organism-based
Mus musculus [22] = assay: Antiinflammatory activity in C57BL/6 mouse assessed as reduction in lung wet/dry ratio at 10 to 20 mg/kg, ip pretreated for 30 mins followed by LPS addition measured after 6 hrs; assay type: functional, organism-based

SMILES: Cc1ccc(S(=O)(=O)c2[nH]c3cc(C)ccc3c2I)cc1
inhibition (Peritoneal macrophage [1]): Active
inhibition (Peritoneal macrophage [2]): Active
Activity (Peritoneal macrophage [3]): Non-Toxic

SMILES: Cc1ccc(S(=O)(=O)c2cc3ccc(C)cc3n2C)cc1
inhibition (Peritoneal macrophage [1]): Active
inhibition (Peritoneal macrophage [2]): Active
Activity (Peritoneal macrophage [3]): Non-Toxic

IC50 (Peritoneal macrophage [4]): 8010 nM
IC50 (Peritoneal macrophage [5]): 1820 nM
SMILES: Cn1c(S(=O)(=O)c2ccc(C(F)(F)F)cc2)cc2ccccc21
inhibition at 10 µM (Peritoneal macrophage [1]): 82%
inhibition at 10 µM (Peritoneal macrophage [2]): 88%
Activity (Peritoneal macrophage [3]): Non-Toxic
inhibition (Peritoneal macrophage [4]): Dose-dependent effect
inhibition (Peritoneal macrophage [5]): Dose-dependent effect
inhibition (Peritoneal macrophage [6]): Active
inhibition (Peritoneal macrophage [7]): Active
inhibition (Peritoneal macrophage [8]): Active
inhibition (Mus musculus [9]): Active
inhibition (Mus musculus [10]): Active
inhibition (Mus musculus [11]): Active
inhibition (Mus musculus [12]): Active
inhibition (Mus musculus [13]): Active
inhibition (Mus musculus [14]): Active
inhibition (Mus musculus [15]): Active
inhibition (Mus musculus [16]): Active
inhibition (Mus musculus [17]): Active
inhibition (Mus musculus [18]): Active
inhibition (Mus musculus [19]): Active
inhibition (Mus musculus [20]): Active
inhibition (Mus musculus [21]): Active
Activity (Mus musculus [22]): Active

IC50 (Peritoneal macrophage [4]): 3080 nM
IC50 (Peritoneal macrophage [5]): 1100 nM
SMILES: Cn1c(S(=O)(=O)c2ccc(C(C)(C)C)cc2)cc2ccccc21
inhibition at 10 µM (Peritoneal macrophage [1]): 82%
inhibition at 10 µM (Peritoneal macrophage [2]): 88%
Activity (Peritoneal macrophage [3]): Non-Toxic
inhibition (Peritoneal macrophage [4]): Dose-dependent effect
inhibition (Peritoneal macrophage [5]): Dose-dependent effect
inhibition (Peritoneal macrophage [6]): Active
inhibition (Peritoneal macrophage [7]): Active
inhibition (Peritoneal macrophage [8]): Active
inhibition (Mus musculus [9]): Active
inhibition (Mus musculus [10]): Active
inhibition (Mus musculus [11]): Active
inhibition (Mus musculus [12]): Active
inhibition (Mus musculus [13]): Active
inhibition (Mus musculus [14]): Active
inhibition (Mus musculus [15]): Active
inhibition (Mus musculus [16]): Active
inhibition (Mus musculus [17]): Active
inhibition (Mus musculus [18]): Active
inhibition (Mus musculus [19]): Active
inhibition (Mus musculus [20]): Active
inhibition (Mus musculus [21]): Active
Activity (Mus musculus [22]): Active

SMILES: COc1ccc2c(c1)c(CC(=O)O)c(C)n2C(=O)c1ccc(Cl)cc1 [INDOMETHACIN]
inhibition (Peritoneal macrophage [1]): Active
inhibition (Peritoneal macrophage [2]): Active
Activity (Peritoneal macrophage [3]): Non-Toxic

SMILES: Cn1c(S(=O)(=O)c2ccccc2)cc2ccccc21
inhibition (Peritoneal macrophage [1]): Active
inhibition (Peritoneal macrophage [2]): Active
Activity (Peritoneal macrophage [3]): Non-Toxic

SMILES: Cc1ccc2cc(S(=O)(=O)c3cccc4ccccc34)[nH]c2c1
inhibition (Peritoneal macrophage [1]): Active
inhibition (Peritoneal macrophage [2]): Active
Activity (Peritoneal macrophage [3]): Non-Toxic

SMILES: Cn1c(S(=O)(=O)c2ccc(-c3ccccc3)cc2)cc2ccccc21
inhibition (Peritoneal macrophage [1]): Active
inhibition (Peritoneal macrophage [2]): Active
Activity (Peritoneal macrophage [3]): Non-Toxic

SMILES: Cn1c(S(C)(=O)=O)cc2ccccc21
inhibition (Peritoneal macrophage [1]): Active
inhibition (Peritoneal macrophage [2]): Active
Activity (Peritoneal macrophage [3]): Non-Toxic

IC50 (Peritoneal macrophage [4]): 11900 nM
IC50 (Peritoneal macrophage [5]): 2390 nM
SMILES: Cc1ccc(S(=O)(=O)c2cc3ccccc3n2C)cc1
inhibition at 10 µM (Peritoneal macrophage [1]): 82%
inhibition at 10 µM (Peritoneal macrophage [2]): 88%
Activity (Peritoneal macrophage [3]): Non-Toxic
inhibition (Peritoneal macrophage [4]): Dose-dependent effect
inhibition (Peritoneal macrophage [5]): Dose-dependent effect

IC50 (Peritoneal macrophage [4]): 59400 nM
IC50 (Peritoneal macrophage [5]): 1120 nM
SMILES: COc1ccc(S(=O)(=O)c2cc3ccccc3n2C)cc1
inhibition (Peritoneal macrophage [1]): Active
inhibition (Peritoneal macrophage [2]): Active
Activity (Peritoneal macrophage [3]): Non-Toxic

SMILES: Cn1c(S(=O)(=O)c2cccc3ccccc23)cc2ccccc21
inhibition (Peritoneal macrophage [1]): Active
inhibition (Peritoneal macrophage [2]): Active
Activity (Peritoneal macrophage [3]): Non-Toxic

SMILES: COc1ccc2c(c1)cc(S(=O)(=O)c1ccc(C)cc1)n2C
inhibition (Peritoneal macrophage [1]): Active
inhibition (Peritoneal macrophage [2]): Active
Activity (Peritoneal macrophage [3]): Non-Toxic

SMILES: COc1ccc2c(c1)cc(S(=O)(=O)c1ccc(C(C)(C)C)cc1)n2C
inhibition (Peritoneal macrophage [1]): Active
inhibition (Peritoneal macrophage [2]): Active
Activity (Peritoneal macrophage [3]): Non-Toxic

SMILES: Cc1ccc(S(=O)(=O)c2c(C)c3ccccc3n2C)cc1
inhibition (Peritoneal macrophage [1]): Active
inhibition (Peritoneal macrophage [2]): Active
Activity (Peritoneal macrophage [3]): Non-Toxic

SMILES: COc1ccc(S(=O)(=O)c2[nH]c3cc(C)ccc3c2I)cc1
inhibition (Peritoneal macrophage [1]): Active
inhibition (Peritoneal macrophage [2]): Active
Activity (Peritoneal macrophage [3]): Non-Toxic

SMILES: Cc1ccc(S(=O)(=O)c2cc3c(Cl)cccc3[nH]2)cc1
inhibition (Peritoneal macrophage [1]): Active
inhibition (Peritoneal macrophage [2]): Active
Activity (Peritoneal macrophage [3]): Non-Toxic

SMILES: Cn1c(S(=O)(=O)c2ccc(F)cc2)cc2ccccc21
inhibition (Peritoneal macrophage [1]): Active
inhibition (Peritoneal macrophage [2]): Active
Activity (Peritoneal macrophage [3]): Non-Toxic

SMILES: Cc1ccc(S(=O)(=O)c2cc3cc(Br)ccc3n2C)cc1
inhibition (Peritoneal macrophage [1]): Active
inhibition (Peritoneal macrophage [2]): Active
Activity (Peritoneal macrophage [3]): Non-Toxic

SMILES: Cc1c(S(=O)(=O)c2ccc(C(C)(C)C)cc2)n(C)c2ccccc12
inhibition (Peritoneal macrophage [1]): Active
inhibition (Peritoneal macrophage [2]): Active
Activity (Peritoneal macrophage [3]): Non-Toxic

SMILES: Cc1ccc(S(=O)(=O)c2cc3c(Cl)cccc3n2C)cc1
inhibition (Peritoneal macrophage [1]): Active
inhibition (Peritoneal macrophage [2]): Active
Activity (Peritoneal macrophage [3]): Non-Toxic

SMILES: Cc1ccccc1S(=O)(=O)c1cc2ccccc2n1C
inhibition (Peritoneal macrophage [1]): Active
inhibition (Peritoneal macrophage [2]): Active
Activity (Peritoneal macrophage [3]): Non-Toxic

SMILES: Cc1ccc(S(=O)(=O)c2c(C)n(C)c3ccccc23)cc1
inhibition (Peritoneal macrophage [1]): Active
inhibition (Peritoneal macrophage [2]): Active
Activity (Peritoneal macrophage [3]): Non-Toxic

SMILES: Cc1ccc(S(=O)(=O)c2[nH]c3ccccc3c2I)cc1
inhibition (Peritoneal macrophage [1]): Active
inhibition (Peritoneal macrophage [2]): Active
Activity (Peritoneal macrophage [3]): Non-Toxic

SMILES: Cn1c(S(=O)(=O)c2cccs2)cc2ccccc21
inhibition (Peritoneal macrophage [1]): Active
inhibition (Peritoneal macrophage [2]): Active
Activity (Peritoneal macrophage [3]): Non-Toxic

SMILES: Cc1ccc(S(=O)(=O)c2cc3ccc(F)cc3n2C)cc1
inhibition (Peritoneal macrophage [1]): Active
inhibition (Peritoneal macrophage [2]): Active
Activity (Peritoneal macrophage [3]): Non-Toxic

SMILES: CCCCn1c(S(=O)(=O)c2ccc(C)cc2)cc2ccccc21
inhibition (Peritoneal macrophage [1]): Active
inhibition (Peritoneal macrophage [2]): Active
Activity (Peritoneal macrophage [3]): Non-Toxic

SMILES: CCn1c(-c2ccccc2)c(S(=O)(=O)c2ccc(C)cc2)c2ccccc21
inhibition (Peritoneal macrophage [1]): Active
inhibition (Peritoneal macrophage [2]): Active
Activity (Peritoneal macrophage [3]): Non-Toxic

SMILES: Cc1ccc(S(=O)(=O)c2cc3cc([N+](=O)[O-])ccc3n2C)cc1
inhibition (Peritoneal macrophage [1]): Active
inhibition (Peritoneal macrophage [2]): Active
Activity (Peritoneal macrophage [3]): Non-Toxic

SMILES: Cn1c(S(=O)(=O)c2ccc(Cl)cc2)cc2ccccc21
inhibition (Peritoneal macrophage [1]): Active
inhibition (Peritoneal macrophage [2]): Active
Activity (Peritoneal macrophage [3]): Non-Toxic

SMILES: COc1ccc2c(c1)cc(S(=O)(=O)c1ccc(C(F)(F)F)cc1)n2C
inhibition (Peritoneal macrophage [1]): Active
inhibition (Peritoneal macrophage [2]): Active
Activity (Peritoneal macrophage [3]): Non-Toxic

SMILES: Cc1c(S(=O)(=O)c2ccc(C(F)(F)F)cc2)n(C)c2ccccc12
inhibition (Peritoneal macrophage [1]): Active
inhibition (Peritoneal macrophage [2]): Active
Activity (Peritoneal macrophage [3]): Non-Toxic
